Measured values as given in ChEMBL document CHEMBL1201862, “PubChem BioAssay data set” (2004).
Active and inactive are the calls of the source.

How the values were obtained:
[1] = Counterscreen for IDE inhibitors: Luminescence-based cell-based high throughput dose response assay to identify compounds that are cytotoxic to HEK cells. [Related pubchem assays: 434962 (Primary screen (IDE inhibitors in singlicate)), 449730 (Counterscreen (Cytotoxicity in triplicate)), 435028 (Confirmation (IDE inhibitors in triplicate)) …; type: functional; settings: HEK293
Perilipin-1/ABHD5 = Perilipin-1/ABHD5 (Homo sapiens, UniProt O60240+Q8WTS1); assay: Luminescence-based biochemical high throughput dose response assay for inhibitors of the interaction of the lipase co-activator protein, abhydrolase domain containing 5 (ABHD5) with perilipin-1 (PLIN1) (2K validation set). [Related pubchem assays (depositor defined):AID493027, AID493057]
[2] = target: T1, Zinc finger protein mex-5 (Caenorhabditis elegans, UniProt Q9XUB2); assay: MEX-5/TCR-2 RNA interaction inhibitors, dose response, biochemical, C. elegans, fluorescence polarization (AID 1960)
T1 sequence (Q9XUB2 whole entry): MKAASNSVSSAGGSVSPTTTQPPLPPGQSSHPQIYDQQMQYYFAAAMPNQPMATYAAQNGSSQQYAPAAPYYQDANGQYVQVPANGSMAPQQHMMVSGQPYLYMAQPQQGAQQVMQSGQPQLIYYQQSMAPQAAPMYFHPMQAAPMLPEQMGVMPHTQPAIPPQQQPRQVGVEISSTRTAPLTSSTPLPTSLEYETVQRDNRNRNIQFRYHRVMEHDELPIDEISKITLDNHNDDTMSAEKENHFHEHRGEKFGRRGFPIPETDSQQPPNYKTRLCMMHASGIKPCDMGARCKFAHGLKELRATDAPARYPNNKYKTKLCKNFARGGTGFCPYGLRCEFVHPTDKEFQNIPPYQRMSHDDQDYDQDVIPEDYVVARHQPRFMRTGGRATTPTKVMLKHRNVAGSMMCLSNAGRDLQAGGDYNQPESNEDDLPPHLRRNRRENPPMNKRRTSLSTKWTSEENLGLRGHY

[3] = target: T2, RNA-binding protein pos-1 (Caenorhabditis elegans, UniProt G5EF15); assay: inhibitors of POS-1/mex-3 RNA binding, dose response, biochemical, fluorescence polarization (AID 1964);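 also: purified POS-1 fused to maltose binding protein made in E. coli; potency of compounds blocking POS-1 binding to fluorescent RNA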
T2 sequence (G5EF15 whole entry): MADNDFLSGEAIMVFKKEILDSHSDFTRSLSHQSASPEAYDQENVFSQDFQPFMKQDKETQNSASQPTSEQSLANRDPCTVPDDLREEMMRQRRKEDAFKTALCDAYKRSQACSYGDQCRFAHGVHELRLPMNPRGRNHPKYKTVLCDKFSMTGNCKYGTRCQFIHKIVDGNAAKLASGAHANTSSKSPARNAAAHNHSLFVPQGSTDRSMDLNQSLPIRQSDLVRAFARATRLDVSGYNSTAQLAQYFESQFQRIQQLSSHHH

[4] = target: 1-acylglycerol-3-phosphate O-acyltransferase ABHD5/Perilipin-5 (Homo sapiens, UniProt Q00G26+Q8WTS1); assay: Luminescence-based biochemical high throughput dose response assay for inhibitors of the interaction of the lipase co-activator protein, abhydrolase domain containing 5 (ABHD5) with perilipin-5 (MLDP; PLIN5) (2K validation set). [Related pubchem assays (depositor defined):AID493035, AID493241]
Insulin-degrading enzyme = Insulin-degrading enzyme (Homo sapiens, UniProt P14735); assay: Dose Response: Fluorescence polarization-based cell-based high throughput dose response assay for inhibitors of insulin-degrading enzyme (IDE). [Related pubchem assays: 434962 (Primary screen (IDE inhibitors in singlicate)), 449730 (Counterscreen (Cytotoxicity in triplicate)), 435028 (Confirmation (IDE inhibitors in triplicate)), 434984 (Summary …; type: functional
[5] = growth suppression of beta-catenin-knockout colon cells, dose response, cell-based, HCT116, human colon tumor (AID 1045); type: functional;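 also: HCT116 colon tumor cells with beta catenin knocked out; cells exposed to compound for 60 hours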
[6] = target: Alkaline phosphatase, placental type (Homo sapiens, UniProt P05187); assay: PLAP enzyme inhibitors, confirmation, biochemical, luminescence (AID 1512); type: functional
[7] = target: T3, Alkaline phosphatase, tissue-nonspecific isozyme (Homo sapiens, UniProt P05186); assay: human TNAP enzyme inhibitors, SAR follow-up, biochemical, luminescent, dose response (AID 1056)
T3 sequence (P05186 whole entry): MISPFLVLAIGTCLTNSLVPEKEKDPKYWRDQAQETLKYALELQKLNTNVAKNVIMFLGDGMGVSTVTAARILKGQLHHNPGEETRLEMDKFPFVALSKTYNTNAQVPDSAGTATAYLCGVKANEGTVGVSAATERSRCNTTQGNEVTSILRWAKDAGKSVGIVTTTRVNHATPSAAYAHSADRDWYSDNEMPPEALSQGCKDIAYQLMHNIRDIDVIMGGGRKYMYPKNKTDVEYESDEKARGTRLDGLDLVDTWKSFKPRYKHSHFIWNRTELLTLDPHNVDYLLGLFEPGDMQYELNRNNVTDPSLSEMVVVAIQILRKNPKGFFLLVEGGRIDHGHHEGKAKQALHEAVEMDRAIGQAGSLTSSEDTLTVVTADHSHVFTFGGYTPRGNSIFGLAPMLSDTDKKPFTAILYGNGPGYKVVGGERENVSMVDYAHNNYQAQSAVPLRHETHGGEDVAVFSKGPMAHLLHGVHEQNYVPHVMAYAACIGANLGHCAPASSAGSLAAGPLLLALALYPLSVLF

[8] = growth suppression of PTEN-null colon cells, dose response, cell-based, HCT116 PTEN knockout (AID 1047); type: functional;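 also: HCT116 colon tumor cells with PTEN knocked out; cells exposed to compound for 60 hours before readout; potency for loss of cell viability measured by luminescence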
Coagulation factor XII = target: T4, Coagulation factor XII (Homo sapiens, UniProt P00748); assay: FXIIa inhibitor potency, concentration-response, biochemical (AID 716); type: functional
T4 sequence (P00748 whole entry): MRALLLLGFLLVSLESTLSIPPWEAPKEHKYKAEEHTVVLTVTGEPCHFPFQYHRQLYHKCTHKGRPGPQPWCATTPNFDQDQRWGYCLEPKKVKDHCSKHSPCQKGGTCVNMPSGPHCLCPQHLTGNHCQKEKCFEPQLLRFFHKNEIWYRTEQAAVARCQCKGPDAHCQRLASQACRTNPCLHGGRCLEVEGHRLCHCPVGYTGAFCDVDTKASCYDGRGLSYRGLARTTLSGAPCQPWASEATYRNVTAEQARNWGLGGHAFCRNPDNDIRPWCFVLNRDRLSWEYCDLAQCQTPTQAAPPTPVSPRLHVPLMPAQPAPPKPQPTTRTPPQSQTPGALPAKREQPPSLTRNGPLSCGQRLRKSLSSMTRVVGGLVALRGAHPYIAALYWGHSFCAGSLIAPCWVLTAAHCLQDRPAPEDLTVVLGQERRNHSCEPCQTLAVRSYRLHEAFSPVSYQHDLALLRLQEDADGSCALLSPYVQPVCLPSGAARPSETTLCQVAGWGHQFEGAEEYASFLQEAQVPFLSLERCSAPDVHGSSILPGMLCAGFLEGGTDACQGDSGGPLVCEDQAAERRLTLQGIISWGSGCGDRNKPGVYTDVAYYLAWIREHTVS

[9] = decrease of PhoP-driven GFP reporter signal, S. Typhimurium, dose response, PhoP regulon inhibitor project, purified and synthesized compounds, set 2 (AID 2831); type: functional
Exodeoxyribonuclease V = Exodeoxyribonuclease V (Escherichia coli (strain K12), UniProt P04993+P07648+P08394); assay: E. coli RecBCD inhibitors, dose response, counter-screen for AddAB inhibitor project, absorbance, V66 E. coli, mutant T4 phage (AID 492957); type: functional, cell-based, Escherichia coli str. K-12 substr. MG1655
[10] = target: T5, Short transient receptor potential channel 4 (Mus musculus, UniProt Q9QUQ5); assay: mouse TRPC4 channel activators, dose response, cell-based, HEK293 TRPC4/mu-opioid, Fluo-4 calcium (AID 434937); type: functional
T5 sequence (Q9QUQ5 whole entry): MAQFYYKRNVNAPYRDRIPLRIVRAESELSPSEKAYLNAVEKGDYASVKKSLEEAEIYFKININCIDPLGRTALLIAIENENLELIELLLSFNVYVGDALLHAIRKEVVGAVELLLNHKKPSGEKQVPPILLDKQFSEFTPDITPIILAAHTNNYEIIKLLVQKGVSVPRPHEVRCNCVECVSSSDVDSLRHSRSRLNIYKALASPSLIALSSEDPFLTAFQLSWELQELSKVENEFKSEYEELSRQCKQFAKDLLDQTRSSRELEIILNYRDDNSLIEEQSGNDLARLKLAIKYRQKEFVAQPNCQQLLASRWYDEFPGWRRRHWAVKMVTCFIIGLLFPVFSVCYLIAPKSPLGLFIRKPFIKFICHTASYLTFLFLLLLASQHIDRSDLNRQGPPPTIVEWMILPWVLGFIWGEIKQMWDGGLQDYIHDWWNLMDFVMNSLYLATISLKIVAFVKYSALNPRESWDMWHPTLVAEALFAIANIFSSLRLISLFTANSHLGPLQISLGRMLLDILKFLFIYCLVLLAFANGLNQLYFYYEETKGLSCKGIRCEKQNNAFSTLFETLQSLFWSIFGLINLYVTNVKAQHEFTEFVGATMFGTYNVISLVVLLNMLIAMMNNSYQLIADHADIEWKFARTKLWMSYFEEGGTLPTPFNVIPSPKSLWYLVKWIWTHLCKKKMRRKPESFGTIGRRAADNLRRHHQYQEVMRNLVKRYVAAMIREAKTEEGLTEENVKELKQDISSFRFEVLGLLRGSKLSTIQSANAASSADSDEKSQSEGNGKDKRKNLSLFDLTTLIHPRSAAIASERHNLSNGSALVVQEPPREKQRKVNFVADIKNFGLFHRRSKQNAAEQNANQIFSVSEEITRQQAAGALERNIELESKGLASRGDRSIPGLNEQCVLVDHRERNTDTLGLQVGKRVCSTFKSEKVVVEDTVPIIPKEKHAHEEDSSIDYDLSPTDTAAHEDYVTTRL

Ion channel NompC = Ion channel NompC (Danio rerio, UniProt Q7T1G6); assay: Dose response cell-based high-throughput screening assay for agonists of the transient receptor potential channel N1 (TRPN1). [Related pubchem assays (depositor defined):AID1424, AID1448]; type: functional
Mucolipin-3 = Mucolipin-3 (Homo sapiens, UniProt Q8TDD5); assay: Fluorescence counterscreen assay for […] agonists: dose response cell-based high-throughput screening assay to identify agonists of the transient receptor potential channel ML3 (TRPML3). [Related pubchem assays: 1424, 1448 ]; type: functional
[11] = Counterscreen for AddAB inhibitors: absorbance-based bacterial cell-based high throughput dose response assay for inhibitors of bacterial viability. [Related pubchem assays (depositor defined):AID435030, AID449728, AID449731, AID488942, AID488955, AID488956]; type: functional
Vero = assay: cells; type: functional; settings: Chlorocebus sabaeus
[12] = Shn3 3'UTR reporter inhibitors, dose response, cell-based, Clone20 osteoblasts, firefly luciferase, cherry-picked (AID 624132); type: functional;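 also: firefly luciferase luminescence from reporter carrying the Shn3 3'UTR in osteoblasts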
Integrin alpha-L = Integrin alpha-L (Mus musculus, UniProt P24063); assay: modulators of CD8 T cell-vesicle binding, dose response, powder samples, mouse 2C CD8+ cells (AID 504565); type: functional
[13] = target: T6, Tyrosine-protein phosphatase non-receptor type 7 (Homo sapiens, UniProt P35236); assay: HePTP (PTPN7) phosphatase inhibitor potency, SAR follow-up, biochemical, set 2 (AID 449736); type: functional
T6 sequence (P35236 whole entry): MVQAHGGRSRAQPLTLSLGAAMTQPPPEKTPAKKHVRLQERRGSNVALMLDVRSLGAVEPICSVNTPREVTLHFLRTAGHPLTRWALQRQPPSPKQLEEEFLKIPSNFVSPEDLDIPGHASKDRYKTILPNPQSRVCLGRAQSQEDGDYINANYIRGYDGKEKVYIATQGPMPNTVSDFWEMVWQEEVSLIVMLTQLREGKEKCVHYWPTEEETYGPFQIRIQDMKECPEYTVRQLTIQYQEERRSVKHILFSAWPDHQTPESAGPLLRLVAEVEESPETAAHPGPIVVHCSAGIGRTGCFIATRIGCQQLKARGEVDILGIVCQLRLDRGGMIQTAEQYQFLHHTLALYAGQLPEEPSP

[14] = target: T7, Kappa-type opioid receptor (Homo sapiens, UniProt P41145); assay: SAR analysis of small molecule antagonists of the kappa opioid receptor via a luminescent beta-arrestin assay - Set 3. [Related pubchem assays (depositor defined):AID1777, AID1778, AID1785, AID1786, AID1966, AID2133, AID2136, AID2285, AID2495]; type: functional
[15] = target: T7, Kappa-type opioid receptor; assay: SAR analysis of Antagonists of the Kappa Opioid Receptor (KOR) using an Image-Based Assay - Set 3. [Related pubchem assays (depositor defined):AID1777, AID1785]; type: functional
[16] = target: Delta-type opioid receptor (Homo sapiens, UniProt P41143); assay: SAR Analysis of Antagonists of the DOR Receptor using an Image-Based Assay - Set 3. [Related pubchem assays (depositor defined):AID1777, AID1785]; type: functional;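 also: U2OS cells expressing DOR1 and beta-arrestin GFP stimulated with 100 nM SNC80; imaging of GFP-tagged beta-arrestin moving into spots after receptor activation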
Mu-type opioid receptor = Mu-type opioid receptor (Homo sapiens, UniProt P35372); assay: SAR Analysis of Antagonists of the MOR Receptor using an Image-Based Assay - Set 3. [Related pubchem assays (depositor defined):AID1777, AID1785, AID1786, AID1966, AID2133, AID2136, AID2284, AID2285, AID2420]; type: functional
Chain of Mu-type opioid receptor (P35372 whole entry): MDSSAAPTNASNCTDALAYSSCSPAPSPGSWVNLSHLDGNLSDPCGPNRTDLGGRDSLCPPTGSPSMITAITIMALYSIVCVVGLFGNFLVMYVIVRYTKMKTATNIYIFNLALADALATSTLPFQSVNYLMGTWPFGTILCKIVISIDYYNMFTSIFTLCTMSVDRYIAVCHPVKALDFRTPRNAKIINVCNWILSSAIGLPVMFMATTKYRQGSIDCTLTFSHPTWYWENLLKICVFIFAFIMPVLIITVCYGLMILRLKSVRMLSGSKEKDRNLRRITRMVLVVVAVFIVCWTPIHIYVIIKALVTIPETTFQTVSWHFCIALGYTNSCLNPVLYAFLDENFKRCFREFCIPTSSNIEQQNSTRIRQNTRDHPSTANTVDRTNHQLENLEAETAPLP

T7 sequence (P41145 whole entry): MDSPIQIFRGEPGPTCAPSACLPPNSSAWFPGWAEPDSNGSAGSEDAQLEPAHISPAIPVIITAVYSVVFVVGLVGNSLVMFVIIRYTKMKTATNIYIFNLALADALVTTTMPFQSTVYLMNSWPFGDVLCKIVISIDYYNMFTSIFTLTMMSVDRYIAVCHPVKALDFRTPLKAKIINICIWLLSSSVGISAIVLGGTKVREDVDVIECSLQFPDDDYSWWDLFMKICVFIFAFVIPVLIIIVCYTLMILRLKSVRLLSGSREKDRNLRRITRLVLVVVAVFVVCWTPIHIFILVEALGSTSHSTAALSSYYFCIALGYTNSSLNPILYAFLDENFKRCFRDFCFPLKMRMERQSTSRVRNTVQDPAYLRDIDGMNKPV
Chain of Insulin-degrading enzyme (P14735 whole entry): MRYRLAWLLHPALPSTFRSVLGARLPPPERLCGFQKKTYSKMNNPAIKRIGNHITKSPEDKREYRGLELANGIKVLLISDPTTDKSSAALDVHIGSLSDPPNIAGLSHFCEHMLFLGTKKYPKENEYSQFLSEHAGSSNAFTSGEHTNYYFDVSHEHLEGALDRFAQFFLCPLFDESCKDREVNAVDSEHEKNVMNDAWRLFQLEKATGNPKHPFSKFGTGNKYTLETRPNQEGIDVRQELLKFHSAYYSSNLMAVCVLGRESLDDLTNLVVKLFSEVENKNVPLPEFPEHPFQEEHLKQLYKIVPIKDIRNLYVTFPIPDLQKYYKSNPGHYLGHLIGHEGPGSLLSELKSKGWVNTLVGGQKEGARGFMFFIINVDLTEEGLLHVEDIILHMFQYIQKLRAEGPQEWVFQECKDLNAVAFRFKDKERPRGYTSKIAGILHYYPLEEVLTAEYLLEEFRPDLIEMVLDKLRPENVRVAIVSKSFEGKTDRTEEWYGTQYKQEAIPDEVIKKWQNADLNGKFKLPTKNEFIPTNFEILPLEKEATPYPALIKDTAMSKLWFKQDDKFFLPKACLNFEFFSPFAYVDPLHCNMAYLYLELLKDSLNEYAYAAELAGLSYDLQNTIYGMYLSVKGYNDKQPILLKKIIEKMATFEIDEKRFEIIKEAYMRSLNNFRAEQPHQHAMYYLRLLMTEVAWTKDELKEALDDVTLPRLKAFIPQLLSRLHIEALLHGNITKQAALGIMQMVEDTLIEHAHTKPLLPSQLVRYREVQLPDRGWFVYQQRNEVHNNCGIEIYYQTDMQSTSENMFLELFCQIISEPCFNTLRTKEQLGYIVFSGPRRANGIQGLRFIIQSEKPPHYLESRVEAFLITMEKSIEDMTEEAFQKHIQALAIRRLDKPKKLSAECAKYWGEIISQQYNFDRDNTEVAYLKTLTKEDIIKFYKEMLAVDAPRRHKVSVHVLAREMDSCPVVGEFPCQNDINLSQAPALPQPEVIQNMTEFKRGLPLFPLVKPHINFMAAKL
Chain of 1-acylglycerol-3-phosphate O-acyltransferase ABHD5/Perilipin-5 (Q00G26 whole entry, the tested form may be a part): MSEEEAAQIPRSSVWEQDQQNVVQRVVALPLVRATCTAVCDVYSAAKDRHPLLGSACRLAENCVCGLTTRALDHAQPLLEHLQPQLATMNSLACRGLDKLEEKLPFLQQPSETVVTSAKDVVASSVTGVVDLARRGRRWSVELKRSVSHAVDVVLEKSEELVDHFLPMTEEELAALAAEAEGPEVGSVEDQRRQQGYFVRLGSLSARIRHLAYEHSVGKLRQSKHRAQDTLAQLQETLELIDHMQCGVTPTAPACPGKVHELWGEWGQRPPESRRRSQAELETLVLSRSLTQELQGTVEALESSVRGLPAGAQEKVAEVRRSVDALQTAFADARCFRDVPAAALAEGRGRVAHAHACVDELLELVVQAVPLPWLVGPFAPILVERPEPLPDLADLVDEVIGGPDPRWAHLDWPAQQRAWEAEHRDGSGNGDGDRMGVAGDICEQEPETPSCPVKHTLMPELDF
Chain of 1-acylglycerol-3-phosphate O-acyltransferase ABHD5/Perilipin-5 (Q8WTS1 whole entry, the tested form may be a part): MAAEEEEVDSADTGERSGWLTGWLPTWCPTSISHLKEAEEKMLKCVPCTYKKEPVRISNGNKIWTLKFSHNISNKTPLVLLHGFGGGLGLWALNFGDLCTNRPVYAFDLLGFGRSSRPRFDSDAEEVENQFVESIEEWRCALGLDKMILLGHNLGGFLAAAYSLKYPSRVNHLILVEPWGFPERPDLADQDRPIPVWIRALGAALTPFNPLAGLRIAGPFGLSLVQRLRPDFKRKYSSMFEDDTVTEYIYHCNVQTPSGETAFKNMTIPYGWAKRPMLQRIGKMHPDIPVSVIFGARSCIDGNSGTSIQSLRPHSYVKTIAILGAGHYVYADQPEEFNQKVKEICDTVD
Chain of Alkaline phosphatase, placental type (P05187 whole entry): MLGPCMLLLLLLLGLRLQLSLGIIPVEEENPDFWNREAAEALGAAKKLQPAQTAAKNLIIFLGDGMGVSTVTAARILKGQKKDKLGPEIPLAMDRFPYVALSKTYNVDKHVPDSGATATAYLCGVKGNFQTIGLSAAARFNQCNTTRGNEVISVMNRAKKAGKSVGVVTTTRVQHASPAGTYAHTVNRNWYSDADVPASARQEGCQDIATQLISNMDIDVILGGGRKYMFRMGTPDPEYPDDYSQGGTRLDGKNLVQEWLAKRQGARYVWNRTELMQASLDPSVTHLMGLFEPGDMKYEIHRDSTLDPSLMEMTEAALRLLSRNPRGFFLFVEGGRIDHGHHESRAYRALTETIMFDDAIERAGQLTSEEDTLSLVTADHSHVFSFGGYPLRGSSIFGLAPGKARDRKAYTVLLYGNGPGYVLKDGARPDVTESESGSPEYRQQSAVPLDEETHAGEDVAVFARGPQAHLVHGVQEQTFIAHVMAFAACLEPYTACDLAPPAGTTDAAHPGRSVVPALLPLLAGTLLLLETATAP
Chain of Perilipin-1/ABHD5 (Q8WTS1 whole entry, the tested form may be a part): as the sequence (Q8WTS1 whole entry, the tested form may be a part) above
Chain of Perilipin-1/ABHD5 (O60240 whole entry, the tested form may be a part): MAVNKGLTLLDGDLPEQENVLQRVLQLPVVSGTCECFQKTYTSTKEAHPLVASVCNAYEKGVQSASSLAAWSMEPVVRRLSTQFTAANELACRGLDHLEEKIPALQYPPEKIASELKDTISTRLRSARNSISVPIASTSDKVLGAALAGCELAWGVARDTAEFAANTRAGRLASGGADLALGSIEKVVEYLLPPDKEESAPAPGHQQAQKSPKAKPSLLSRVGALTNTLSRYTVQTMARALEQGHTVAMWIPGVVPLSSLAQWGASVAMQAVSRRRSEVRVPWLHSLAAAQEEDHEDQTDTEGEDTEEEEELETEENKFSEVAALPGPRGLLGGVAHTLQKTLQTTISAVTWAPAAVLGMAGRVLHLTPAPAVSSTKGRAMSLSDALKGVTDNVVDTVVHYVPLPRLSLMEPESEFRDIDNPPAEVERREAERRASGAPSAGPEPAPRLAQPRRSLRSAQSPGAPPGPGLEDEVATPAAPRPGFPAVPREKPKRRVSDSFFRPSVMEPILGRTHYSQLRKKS
Chain of Delta-type opioid receptor (P41143 whole entry): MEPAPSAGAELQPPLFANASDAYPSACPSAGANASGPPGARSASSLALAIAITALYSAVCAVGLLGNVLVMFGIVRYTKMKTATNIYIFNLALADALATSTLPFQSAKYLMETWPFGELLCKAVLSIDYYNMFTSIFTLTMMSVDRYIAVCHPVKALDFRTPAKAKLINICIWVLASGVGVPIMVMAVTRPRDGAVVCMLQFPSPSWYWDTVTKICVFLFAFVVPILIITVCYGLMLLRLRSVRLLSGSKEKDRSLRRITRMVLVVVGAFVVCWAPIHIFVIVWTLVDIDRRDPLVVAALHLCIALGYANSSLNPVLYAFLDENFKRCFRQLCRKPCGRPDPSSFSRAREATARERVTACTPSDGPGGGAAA
Chain of Mucolipin-3 (Q8TDD5 whole entry): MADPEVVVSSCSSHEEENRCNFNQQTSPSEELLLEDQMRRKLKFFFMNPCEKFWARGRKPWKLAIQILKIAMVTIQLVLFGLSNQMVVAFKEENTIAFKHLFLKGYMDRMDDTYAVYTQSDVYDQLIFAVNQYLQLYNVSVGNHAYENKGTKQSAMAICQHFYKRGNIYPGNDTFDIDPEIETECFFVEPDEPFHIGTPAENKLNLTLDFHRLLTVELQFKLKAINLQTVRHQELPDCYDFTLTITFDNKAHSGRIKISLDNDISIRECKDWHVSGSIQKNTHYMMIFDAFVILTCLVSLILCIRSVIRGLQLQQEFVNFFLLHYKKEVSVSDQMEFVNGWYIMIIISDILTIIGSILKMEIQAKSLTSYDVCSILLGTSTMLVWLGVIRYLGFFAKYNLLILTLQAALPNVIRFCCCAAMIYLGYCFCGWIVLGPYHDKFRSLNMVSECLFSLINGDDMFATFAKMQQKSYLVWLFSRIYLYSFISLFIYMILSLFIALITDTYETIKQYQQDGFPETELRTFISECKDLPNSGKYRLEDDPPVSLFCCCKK

SMILES: CS(=O)(=O)Oc1ccc2c(c1)O/C(=C\C=C\c1ccccc1)C2=O
- IC50 [1]: 19.4 µM (not active)
- IC50 (Perilipin-1/ABHD5): 11 µM (inactive)
- EC50 [2]: 3.83 µM (active)
- EC50 [3]: 5.46 µM (active)
- IC50 [4]: 17.6 µM (inactive)
- IC50 (Insulin-degrading enzyme): > 55.9 µM (not active)

SMILES: O=C(NC1(C(F)(F)F)Oc2ccccc2O1)N1CCCC1
- EC50 [5]: 18 µM (active)
- IC50 [6]: 80.9 µM (active)
- IC50 [7]: > 100 µM (inactive)
- EC50 [8]: 15.4 µM (active)

SMILES: COc1ccc(-c2nnc(SCC(=O)Nc3cc(C)on3)n2N)cc1OC
- IC50 (Coagulation factor XII): > 50 µM (inactive)

SMILES: O=C(Nc1nnc(-c2cccs2)o1)c1cccc(C(F)(F)F)c1
- IC50 [9]: > 125 µM (active)
- IC50 (Exodeoxyribonuclease V): 68.2 µM (inactive)
- EC50 [10]: 11.9 µM (active)
- EC50 (Ion channel NompC): 3.33 µM (active)
- EC50 (Mucolipin-3): 4.5 µM (active)
- IC50 [11]: > 39.5 µM (inactive)
- CC50 (Vero): > 25 µM (active)

SMILES: CN(CC(=O)Nc1cc(S(=O)(=O)N2CCCC2)ccc1Cl)Cc1ccc2c(c1)OCO2
- AC50 [12]: 13.1 µM (active)
- EC50 (Integrin alpha-L): 0.197 µM (active)

SMILES: Cc1ccccc1-n1c(N)c(C(=O)N2CCOCC2)sc1=S
- IC50 [13]: > 100 µM (inactive)

SMILES: Cc1ccc(S(=O)(=O)NCc2ccc(C(=O)NCCN3Cc4ccccc4C3)cc2)cc1
- IC50 [14]: > 20 µM (inactive)
- IC50 [15]: > 32 µM (inactive)
- IC50 [16]: > 32 µM (inactive)
- IC50 (Mu-type opioid receptor): > 32 µM (inactive)
